Assay results published in PubChem BioAssay AID1918957 (Molecular Pharmacology Branch, DTP, NCI, 2023).
Several values for one entry are separate records, joined by “and”; a condition that tells them apart may be missing. Equal values may be shown once.

Tested on: NCI-H1876 complex spheroid viability
Test: Anticancer human tumor NCI-H1876 cell line growth inhibition [LSD1];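 further: spheroids exposed to compounds for one week before readout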;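 on viability, T/C: 100% = DMSO vehicle-treated spheroids so lower means fewer viable cells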
Conditions: for viability, T/C: stronger effect = lower value
In short: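 Multicellular complex spheroids of tumor cells with human endothelial cells (HUVEC) and mesenchymal stem cells; the LSD1 inhibitor iadademstat was combined with standard-of-care or investigational agents. Top concentration at or near clinical Cmax, half-log dilutions; final DMSO ≤0.25%.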

[1] = curve of first compound, second compound 0.1 µM
[2] = curve of first compound, second compound 0.316 µM
[3] = curve of first compound, second compound 1 µM
[4] = curve of first compound, second compound 3.16 µM
[5] = curve of first compound, second compound 10 µM
[6] = second compound 0.1 µM, first compound 0.0316 µM
[7] = second compound 0.1 µM, first compound 0.1 µM
[8] = second compound 0.1 µM, first compound 0.316 µM
[9] = second compound 0.1 µM, first compound 1 µM
[10] = second compound 0.316 µM, first compound 0.0316 µM
[11] = second compound 0.316 µM, first compound 0.1 µM
[12] = second compound 0.316 µM, first compound 0.316 µM
[13] = second compound 0.316 µM, first compound 1 µM
[14] = second compound 1 µM, first compound 0.0316 µM
[15] = second compound 1 µM, first compound 0.1 µM
[16] = second compound 1 µM, first compound 0.316 µM
[17] = second compound 1 µM, first compound 1 µM
[18] = second compound 3.16 µM, first compound 0.0316 µM
[19] = second compound 3.16 µM, first compound 0.1 µM
[20] = second compound 3.16 µM, first compound 0.316 µM
[21] = second compound 3.16 µM, first compound 1 µM
[22] = second compound 10 µM, first compound 0.0316 µM
[23] = second compound 10 µM, first compound 0.1 µM
[24] = second compound 10 µM, first compound 0.316 µM
[25] = second compound 10 µM, first compound 1 µM

SMILES	IC50 [1] [µM]	IC50 [2] [µM]	IC50 [3] [µM]	IC50 [4] [µM]	IC50 [5] [µM]	viability, T/C [6] [%]	viability, T/C [7] [%]	viability, T/C [8] [%]	viability, T/C [9] [%]	viability, T/C [10] [%]	viability, T/C [11] [%]	viability, T/C [12] [%]	viability, T/C [13] [%]	viability, T/C [14] [%]	viability, T/C [15] [%]	viability, T/C [16] [%]	viability, T/C [17] [%]	viability, T/C [18] [%]	viability, T/C [19] [%]	viability, T/C [20] [%]	also measured
CC(C)c1c(-c2ccccc2)nc2c(C#N)c[nH]n2c1=O + NC1CC1c1ccc(-c2cccc(O)c2)cc1	7.37	7.73	7.78	6.29	4.8	97.2	96.2	97.3	93.2	99.3	102	102	111	102	101	101	106	101	98.2	96.6	viability, T/C (second compound 0.1 µM, first compound 3.16 µM): 87.2%; viability, T/C (second compound 0.1 µM, first compound 10 µM): 36.5%; viability, T/C (second compound 0.316 µM, first compound 3.16 µM): 91%; viability, T/C (second compound 0.316 µM, first compound 10 µM): 38.2%; viability, T/C (second compound 1 µM, first compound 3.16 µM): 98.5%; viability, T/C (second compound 1 µM, first compound 10 µM): 36.5%; viability, T/C [21]: 96.5%; viability, T/C (second compound 3.16 µM, first compound 3.16 µM): 87.3%; viability, T/C (second compound 3.16 µM, first compound 10 µM): 24.8%; viability, T/C [22]: 84.7%; viability, T/C [23]: 85.7%; viability, T/C [24]: 91.2%; viability, T/C [25]: 88%; viability, T/C (second compound 10 µM, first compound 3.16 µM): 73.2%; viability, T/C (second compound 10 µM, first compound 10 µM): 9.44%
COc1cc(Nc2ncc3c(n2)-c2ccc(Cl)cc2C(c2c(F)cccc2OC)=NC3)ccc1C(=O)O	–	–	–	–	–	–	–	–	–	–	–	–	–	–	–	–	–	–	–	–	viability, T/C (compound 0.00316 µM): 66.5% and 69.5%; viability, T/C (compound 0.01 µM): 54% and 64.2%; viability, T/C (compound 0.0316 µM): 45.4% and 48.2%; viability, T/C (compound 0.1 µM): 42.4% and 38.4%; viability, T/C (compound 0.316 µM): 37.3% and 31.5%; viability, T/C (compound 1 µM): 28.3% and 19.5%; IC50 (curve of compound): 0.0225 µM and 0.0332 µM
CC1COCCN1c1cc(-c2ccnn2C)c2ccnc(-c3ccn[nH]3)c2n1 (configuration not stated) + NC1CC1c1ccc(-c2cccc(O)c2)cc1	0.00389	0.00377	0.00413	< 0.00316	< 0.00316	16.5	4.97	3.26	3.75	17.6	4.99	3.15	3.99	19.2	5.94	3.81	4.68	18.3	5.67	3.74	viability, T/C (second compound 0.1 µM, first compound 0.00316 µM): 51.9%; viability, T/C (second compound 0.1 µM, first compound 0.01 µM): 41.5%; viability, T/C (second compound 0.316 µM, first compound 0.00316 µM): 51.6%; viability, T/C (second compound 0.316 µM, first compound 0.01 µM): 41.4%; viability, T/C (second compound 1 µM, first compound 0.00316 µM): 51.9%; viability, T/C (second compound 1 µM, first compound 0.01 µM): 43.7%; viability, T/C (second compound 3.16 µM, first compound 0.00316 µM): 43%; viability, T/C (second compound 3.16 µM, first compound 0.01 µM): 39.5%; viability, T/C [21]: 4.48%; viability, T/C (second compound 10 µM, first compound 0.00316 µM): 37.5%; viability, T/C (second compound 10 µM, first compound 0.01 µM): 31.5%; viability, T/C [22]: 16.8%; viability, T/C [23]: 6.91%; viability, T/C [24]: 4.75%; viability, T/C [25]: 5.76%
